Results on four molecules are retold here after ChEMBL document CHEMBL1128031, “The design of dipeptide helical mimetics: the synthesis and biological activity of trisubstituted indanes” (Bioorg Med Chem Lett, 1994).

Peptide text beside a SMILES is read from it. * marks the point of attachment. Cbz = O=C(OCc1ccccc1)*

The target of assay [1] is T1, Neuromedin-K receptor (Homo sapiens, UniProt P29371).
T1 sequence (P29371 whole entry): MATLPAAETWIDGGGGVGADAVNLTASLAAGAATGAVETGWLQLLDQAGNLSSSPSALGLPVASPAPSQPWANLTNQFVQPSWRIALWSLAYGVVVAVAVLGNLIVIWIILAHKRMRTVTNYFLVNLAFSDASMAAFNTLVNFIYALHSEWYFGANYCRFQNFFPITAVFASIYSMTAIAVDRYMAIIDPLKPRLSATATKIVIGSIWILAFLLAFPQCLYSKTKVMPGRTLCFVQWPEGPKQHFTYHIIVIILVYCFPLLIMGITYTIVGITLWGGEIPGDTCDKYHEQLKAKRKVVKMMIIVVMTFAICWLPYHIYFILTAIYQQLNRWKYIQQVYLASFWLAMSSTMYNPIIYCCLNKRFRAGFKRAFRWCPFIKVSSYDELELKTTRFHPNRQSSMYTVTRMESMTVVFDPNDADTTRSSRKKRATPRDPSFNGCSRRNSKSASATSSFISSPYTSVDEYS
Kind of assay: Inhibition of [125I][MePhe]-NKB binding to human Tachykinin receptor 3 in CHO cells. The format is cell-based.

The target in assay [2] is Substance-P receptor (Homo sapiens, UniProt P25103). Briefly: Inhibition of [125I]BH-SP binding to tachykinin NK1 receptor in human IM-9 cells. It counts as cell-based.
Chain of Substance-P receptor (P25103 whole entry): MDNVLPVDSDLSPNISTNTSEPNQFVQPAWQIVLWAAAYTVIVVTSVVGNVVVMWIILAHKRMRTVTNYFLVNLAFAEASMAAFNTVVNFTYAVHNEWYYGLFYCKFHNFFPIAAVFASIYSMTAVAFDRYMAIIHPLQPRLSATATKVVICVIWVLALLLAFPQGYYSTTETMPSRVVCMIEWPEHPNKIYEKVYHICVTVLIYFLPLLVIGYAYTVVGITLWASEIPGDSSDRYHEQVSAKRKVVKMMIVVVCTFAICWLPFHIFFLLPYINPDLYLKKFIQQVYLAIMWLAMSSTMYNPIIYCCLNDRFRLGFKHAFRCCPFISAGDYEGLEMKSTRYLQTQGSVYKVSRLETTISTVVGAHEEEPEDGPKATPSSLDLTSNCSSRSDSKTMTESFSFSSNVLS

With `CC(C)(C)CNC(=O)C1(Cc2ccccc2)CCc2ccc(Cc3ccccc3)cc21` (stereo unspecified), the IC50 in assay [1] was found to be 5.2 µM.
With `O=C(NCCc1ccccc1)C1(Cc2ccccc2)CCc2ccc(Cc3ccccc3)cc21` (stereo unspecified), the results for the IC50 in assay [2] and in assay [1] were 2.4 µM and 3 µM, respectively.
In the same order, the values of `COC(=O)C1(Cc2ccccc2)CCc2ccc(Cc3ccccc3)cc21` (stereo unspecified) are 3 µM and 8 µM.
Molecule `NC(=O)[C@H](Cc1ccccc1)NC(=O)[C@H](Cc1c[nH]c2ccccc12)NC(=O)OCc1ccccc1` (Cbz-Trp-Phe-NH2) yielded an IC50 in assay [2] of 9.3 µM. This lies in the single-digit micromolar range.
